PubChem BioAssay AID256 (DTP/NCI, 2004)
Values joined by “and” are separate entries in the source; they are usually repeats but may differ in a detail not shown here. Equal values may be shown once. Inconclusive results and toxic doses are left out. How the source made its calls: active means survival T/C of 150% or more; inactive means T/C below 125% in these data.

System: CD2F1 mice, L1210 leukemia ip, survival T/C
Test: NCI In Vivo Anticancer Drug Screen. Data for tumor model L1210 Leukemia (intraperitoneal) in CD2F1 (CDF1) mice
Details: higher = longer survival
Procedure, shortened: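 Read-out first: treated-group measurement over vehicle-control measurement, expressed as a ratio. Animals bore a transplanted tumor line and were dosed with compound or vehicle.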

[1] = endpoint: mean survival time, dose: 100.0 mg/kg/injection, schedule: Q04DX003 (ip), vehicle: saline with Tween-80
[2] = endpoint: mean survival time, dose: 50.0 mg/kg/injection, schedule: Q01DX009 (ip), vehicle: saline with Tween-80
[3] = endpoint: mean survival time, dose: 100.0 mg/kg/injection, schedule: Q01DX009 (ip), vehicle: saline with Tween-80
[4] = endpoint: mean survival time, dose: 100.0 mg/kg/injection, schedule: Q04DX003 (ip), vehicle: saline
[5] = endpoint: mean survival time, dose: 200.0 mg/kg/injection, schedule: Q04DX003 (ip), vehicle: saline
[6] = endpoint: mean survival time, dose: 400.0 mg/kg/injection, schedule: Q04DX003 (ip), vehicle: saline
[7] = endpoint: mean survival time, dose: 200.0 mg/kg/injection, schedule: Q01DX009 (ip), vehicle: saline with Tween-80
[8] = endpoint: mean survival time, dose: 200.0 mg/kg/injection, schedule: Q04DX003 (ip), vehicle: saline with Tween-80
[9] = endpoint: mean survival time, dose: 400.0 mg/kg/injection, schedule: Q01DX009 (ip), vehicle: saline with Tween-80
[10] = endpoint: mean survival time, dose: 400.0 mg/kg/injection, schedule: Q04DX003 (ip), vehicle: saline with Tween-80
[11] = endpoint: mean survival time, dose: 25.0 mg/kg/injection, schedule: Q01DX009 (ip), vehicle: saline with Tween-80

Measured: T/C

CCCCC1CCCCCCc2[nH]c(/C=C3\N=C(c4ccc[nH]4)C=C3OC)cc21 (stereo not drawn)
inactive: endpoint: mean survival time, dose: 0.12 mg/kg/injection, schedule: Q01DX009 (ip), vehicle: saline with Tween-80 103 % of control | endpoint: mean survival time, dose: 0.25 mg/kg/injection, schedule: Q01DX009 (ip), vehicle: saline with Tween-80 107 % of control | endpoint: mean survival time, dose: 0.5 mg/kg/injection, schedule: Q01DX009 (ip), vehicle: saline with Tween-80 116 % of control | endpoint: mean survival time, dose: 1.0 mg/kg/injection, schedule: Q01DX009 (ip), vehicle: saline with Tween-80 105 % of control | endpoint: mean survival time, dose: 2.0 mg/kg/injection, schedule: Q01DX009 (ip), vehicle: saline with Tween-80 106 % of control

CN(C(N)=O)C1CCCC1
inactive: endpoint: mean survival time, dose: 100.0 mg/kg/injection, schedule: Q01DX009 (ip), vehicle: saline 102 % of control | endpoint: mean survival time, dose: 200.0 mg/kg/injection, schedule: Q01DX009 (ip), vehicle: saline 105 % of control | endpoint: mean survival time, dose: 400.0 mg/kg/injection, schedule: Q01DX009 (ip), vehicle: saline 107 % of control

N/C(Cc1ccc(N)cc1)=N\O
inactive: [1] 110 % of control

CNCCSSCCN
inactive: [2] 95 % of control | endpoint: mean survival time, dose: 50.0 mg/kg/injection, schedule: Q04DX003 (ip), vehicle: saline 98 % of control | [3] 93 % of control | [4] 93 % of control | [5] 98 % of control | [6] 98 % of control

Cc1c(Cl)cccc1NS(=O)(=O)c1ccccc1
inactive: [3] 108 % of control | [1] 92 % of control | [7] 103 % of control | [8] 99 % of control | [9] 103 % of control | [10] 99 % of control

Clc1ccc(COC(Cn2ccnc2)c2ccc(Cl)cc2Cl)c(Cl)c1 (stereo not drawn)
inactive: [1] 91 % of control | [8] 93 % of control

Oc1c(Cl)cc(Cl)cc1C=NCC1CCC(CN=Cc2cc(Cl)cc(Cl)c2O)CC1 (stereo not drawn)
inactive: [8] 90 % of control | [10] 90 % of control

NOc1ccc([N+](=O)[O-])cc1[N+](=O)[O-]
inactive: [11] 89 % of control

CC1(O)Nc2nc3c(ncn3C3OC(CO)C(O)C3O)c(=O)n2C1O (stereo not drawn)
inactive: endpoint: mean survival time, dose: 12.5 mg/kg/injection, schedule: Q01DX005 (ip), vehicle: water 106 % of control | endpoint: mean survival time, dose: 25.0 mg/kg/injection, schedule: Q01DX005 (ip), vehicle: water 95 % of control | endpoint: mean survival time, dose: 50.0 mg/kg/injection, schedule: Q01DX005 (ip), vehicle: water 93 % of control | endpoint: mean survival time, dose: 100.0 mg/kg/injection, schedule: Q01DX005 (ip), vehicle: water 101 % of control | endpoint: mean survival time, dose: 200.0 mg/kg/injection, schedule: Q01DX005 (ip), vehicle: water 95 % of control

CCOC(=O)C1(C#N)C(=O)CSC1=Nc1ccccc1Cl (stereo not drawn)
inactive: [11] 90 % of control | [2] 91 % of control | [3] 86 % of control | [9] 86 % of control

Cc1ccccc1-c1nc2c([nH]1)c(=O)n(C)c(=O)n2C
inactive: endpoint: mean survival time, dose: 12.5 mg/kg/injection, schedule: Q01DX005 (ip), vehicle: distilled water + Tween-80 87 % of control | endpoint: mean survival time, dose: 25.0 mg/kg/injection, schedule: Q01DX005 (ip), vehicle: distilled water + Tween-80 92 % of control and 94 % of control | endpoint: mean survival time, dose: 50.0 mg/kg/injection, schedule: Q01DX005 (ip), vehicle: distilled water + Tween-80 93 % of control and 95 % of control | endpoint: mean survival time, dose: 100.0 mg/kg/injection, schedule: Q01DX005 (ip), vehicle: distilled water + Tween-80 88 % of control | endpoint: mean survival time, dose: 200.0 mg/kg/injection, schedule: Q01DX005 (ip), vehicle: distilled water + Tween-80 88 % of control and 93 % of control | endpoint: mean survival time, dose: 400.0 mg/kg/injection, schedule: Q01DX005 (ip), vehicle: distilled water + Tween-80 90 % of control

COc1cc(Br)c(CCNC(=O)Cc2cc(OC)c(OC)cc2Br)cc1OC
inactive: [1] 91 % of control | [8] 86 % of control

CC(=O)NC(CO)C(O)c1ccc(N)cc1 (stereo not drawn)
inactive: endpoint: mean survival time, dose: 100.0 mg/kg/injection, schedule: Q01DX001 (ip), vehicle: saline with Tween-80 97 % of control | [3] 102 % of control | endpoint: mean survival time, dose: 200.0 mg/kg/injection, schedule: Q01DX001 (ip), vehicle: saline with Tween-80 101 % of control | [7] 96 % of control | endpoint: mean survival time, dose: 400.0 mg/kg/injection, schedule: Q01DX001 (ip), vehicle: saline with Tween-80 104 % of control | [9] 96 % of control

CC12CCC3C4CCC(=O)C=C4CCC3C1CCC2O (stereo not drawn)
inactive: endpoint: mean survival time, dose: 50.0 mg/kg/injection, schedule: Q01DX009 (ip), vehicle: Klucel (hydroxypropylcellulose) (HPC) 101 % of control | endpoint: mean survival time, dose: 100.0 mg/kg/injection, schedule: Q01DX009 (ip), vehicle: Klucel (hydroxypropylcellulose) (HPC) 96 % of control | endpoint: mean survival time, dose: 200.0 mg/kg/injection, schedule: Q01DX009 (ip), vehicle: Klucel (hydroxypropylcellulose) (HPC) 101 % of control

CC1(C)N=C(N)N=C(N)N1c1ccccc1Cl
inactive: endpoint: mean survival time, dose: 25.0 mg/kg/injection, schedule: Q04DX002 (ip), vehicle: saline 103 % of control | endpoint: mean survival time, dose: 50.0 mg/kg/injection, schedule: Q04DX002 (ip), vehicle: saline 100 % of control

O=C(Nc1ccc(Br)cc1)c1ccccc1
inactive: [3] 107 % of control | [1] 102 % of control | [7] 94 % of control | [8] 102 % of control | [9] 91 % of control | [10] 100 % of control

Cc1ccc(-[n+]2nscc2O)cc1
inactive: endpoint: mean survival time, dose: 75.0 mg/kg/injection, schedule: Q01DX001 (ip), vehicle: saline 96 % of control | endpoint: mean survival time, dose: 150.0 mg/kg/injection, schedule: Q01DX001 (ip), vehicle: saline 97 % of control | endpoint: mean survival time, dose: 300.0 mg/kg/injection, schedule: Q01DX001 (ip), vehicle: saline 92 % of control

Cc1ccc(C(CS(=O)(=O)c2ccc(C)cc2)c2ccccc2)cc1 (stereo not drawn)
inactive: [4] 93 % of control | [5] 93 % of control | [6] 98 % of control

COC(=O)c1ccccc1SSc1ccccc1C(=O)OC
inactive: [3] 93 % of control | [7] 98 % of control | [9] 93 % of control

N=c1c2ncn(C3CCCC3)c2ncn1OCc1ccccc1
inactive: endpoint: mean survival time, dose: 100.0 mg/kg/injection, schedule: Q01DX001 (ip), vehicle: other 98 % of control

CCOc1ccccc1/C=C1\N=C(c2ccc([N+](=O)[O-])cc2)OC1=O
inactive: endpoint: mean survival time, dose: 100.0 mg/kg/injection, schedule: Q04DX002 (ip), vehicle: saline with Tween-80 95 % of control | endpoint: mean survival time, dose: 200.0 mg/kg/injection, schedule: Q04DX002 (ip), vehicle: saline with Tween-80 91 % of control | endpoint: mean survival time, dose: 400.0 mg/kg/injection, schedule: Q04DX002 (ip), vehicle: saline with Tween-80 100 % of control

COC(=O)C1C2CCC(C2)C1C (stereo not drawn)
inactive: [11] 93 % of control | [2] 104 % of control | [3] 98 % of control | [1] 90 % of control

CC(O)C1OC(n2cnc3c(=S)nc[nH]c32)C(O)C1O (stereo not drawn)
inactive: endpoint: median survival time, dose: 12.5 mg/kg/injection, schedule: Q01DX005 (ip), vehicle: distilled water + Tween-80 119 % of control and 107 % of control | endpoint: median survival time, dose: 25.0 mg/kg/injection, schedule: Q01DX005 (ip), vehicle: distilled water + Tween-80 116 % of control and 124 % of control

COc1cc(OC)c(NC(=O)OCCSc2ccc(Cl)cc2)cc1Cl
inactive: [2] 92 % of control | [3] 92 % of control | [7] 92 % of control

Cc1ccccc1/C1=C/CCCCCC1
inactive: endpoint: mean survival time, dose: 100.0 mg/kg/injection, schedule: Q01DX001 (ip), vehicle: saline sonified 107 % of control | [1] 102 % of control | endpoint: mean survival time, dose: 200.0 mg/kg/injection, schedule: Q01DX001 (ip), vehicle: saline sonified 94 % of control | [8] 104 % of control | endpoint: mean survival time, dose: 400.0 mg/kg/injection, schedule: Q01DX001 (ip), vehicle: saline sonified 89 % of control | [10] 93 % of control
